According to patent publication US11079398B2, “Method for measurement of peptidic degradation products of a proteolytic cascade in blood samples” (ATTOQUANT DIAGNOSTICS GMBH, priority 2012, dated 2021):

Tests used:
[1] = tested on: renin-angiotensin system (RAS); experiment: RSSE-Fingerprinting: blood incubated at 37° C. with added agents, LC-MS/MS quantification of angiotensin peptides; type: biochemical, human; details: for Ang 1-8 steady state equilibrium level compared to control / Ang 1-10 steady state equilibrium level compared to control: heparinised blood, agent added prior to incubation at 37° C., 2 h or 4 h
Protocol: Blood samples were collected and anti-coagulated with standardised heparin tubes (BD). As indicated in FIGS. 3A-3C, plasma separation has been done for the respective samples before the incubation to reach steady state equilibrium.
Following plasma separation by centrifugation at 3000 rcf for 10 minutes at 4° C., […] of plasma was applied onto an activated and equilibrated SEP-PAK™ C18 cartridge. Sample matrix components were removed by washing three times with 1 ml water. Bound analytes were then eluted with 1 ml of methanol. Eluates were evaporated to dryness and reconstituted in 10% acetonitril/90% water supplemented with 0.1% formic acid followed by subjection to LC-MS/MS analysis.
A vacuum manifold has been used for sample processing. • 1. Activation: EtOH abs. • 2. Equilibration: 2×1 ml H2O • 3. Loading: 0.2-1 ml stabilised plasma • 4. Washing: 3×1 ml H2O • 5. Elution: 1 ml MeOH Quantification and Signal Integration
MRM chromatograms were integrated using Analyst 1.5.1 software provided by Applied Biosystems. The threshold for the quantification limit was set at a signal-to-noise ratio of 10. Integration signals not reaching this ratio were set to zero. Analyte signals were related to internal standard signals and concentration was calculated from initially spiked amounts of internal standards.

[2] = target: ACE2 (Homo sapiens, UniProt Q9BYF1); details: artificial matrix, vast excess of substrates; cited from earlier work
Chain of ACE2 (Q9BYF1 18-805): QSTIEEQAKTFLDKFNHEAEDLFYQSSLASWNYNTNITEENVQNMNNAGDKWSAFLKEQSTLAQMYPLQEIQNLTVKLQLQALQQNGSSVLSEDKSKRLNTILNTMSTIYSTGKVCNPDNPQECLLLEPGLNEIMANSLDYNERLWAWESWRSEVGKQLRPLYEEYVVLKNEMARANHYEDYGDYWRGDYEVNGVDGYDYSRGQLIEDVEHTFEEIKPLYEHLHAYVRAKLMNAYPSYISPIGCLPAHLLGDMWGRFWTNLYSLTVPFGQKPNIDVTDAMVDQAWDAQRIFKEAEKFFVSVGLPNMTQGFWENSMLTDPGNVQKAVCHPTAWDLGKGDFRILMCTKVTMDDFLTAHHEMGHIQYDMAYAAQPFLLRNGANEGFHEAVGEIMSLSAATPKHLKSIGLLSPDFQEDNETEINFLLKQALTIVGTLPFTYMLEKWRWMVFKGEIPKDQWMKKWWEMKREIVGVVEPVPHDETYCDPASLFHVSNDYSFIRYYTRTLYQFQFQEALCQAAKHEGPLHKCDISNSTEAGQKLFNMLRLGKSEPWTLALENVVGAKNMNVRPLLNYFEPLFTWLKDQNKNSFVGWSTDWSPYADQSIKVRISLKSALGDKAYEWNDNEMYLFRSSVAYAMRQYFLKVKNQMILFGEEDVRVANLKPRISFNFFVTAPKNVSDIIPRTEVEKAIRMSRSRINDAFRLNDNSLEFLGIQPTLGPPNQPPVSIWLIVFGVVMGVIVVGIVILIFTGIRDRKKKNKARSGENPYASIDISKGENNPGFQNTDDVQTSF

Compound	Ang 1-8 steady state equilibrium level compared to control [1]	Ang 1-10 steady state equilibrium level compared to control [1]	further results
C[C@H](CS)C(=O)N1CCC[C@H]1C(=O)O [Captopril]	decreased	increased	–
angiotensin II (DRVYIHPF; Angiotensin-2; UniProt P01019 25-32, looked up) [Ang 1-8, angiotensin peptide, ACE2 substrate]	–	–	maximal ACE2 conversion rate for Ang 1-8 to Ang 1-7 relative to conversion rate for Ang 1-10 to Ang 1-9 [2]: 65 times
ACE2: recombinant soluble human ACE2 produced by Apeiron Biologics	–	–	shift of RSSE-Fingerprint ([1]; 5 μg/ml enzyme added prior to incubation): shifted as expected
CC(C)C[C@@H](N)[C@H](O)C(=O)N[C@H](C(=O)N[C@H](C(=O)N[C@@H](CC(=O)O)C(=O)O)C(C)C)C(C)C [Amastatin]	massively increase	–	steady state equilibrium Ang 1-10 level in the presence of ACE2 (ACE2 mediated Ang 1-9 production) ([1]; FIG. 2C1/2C3, 2 h incubation): further increases
NCCCC[C@H](N[C@@H](CCc1ccccc1)C(=O)O)C(=O)N1CCC[C@H]1C(=O)O [Lisinopril]	decreased	increased	–
